From patent US20250382583A1, “ENHANCED METHODS FOR INDUCING AND MAINTAINING NAIVE HUMAN PLURIPOTENT STEM CELLS” (Washington University, priority 2021, published 2025)

Assays:
Type in all cases: cell-based, human
[1] = system: WIBR3 OCT4-ΔPE-GFP+-naïve hESCs; experiment: Extended maintenance assay, OCT4-ΔPE-GFP reporter activity (imaging, qRT-PCR); conditions: for activity in maintaining OCT4-ΔPE-GFP reporter activity after passaging: 2.5 and 5 μM, two passages
Procedure: (§1) Defining alternative naïve maintenance media: To define the activity of selected hit compounds during extended naïve culture, naïve hESCs derived from the primed state and maintained in 5i/L/A were dissociated with Accutase (Thermo Fischer Scientific, A1110501) and 1.5×10^5 single cells were seeded in 5i/L/A media on MEF-coated plates. After 24 hours, 5i/L/A media were switched to experimental maintenance conditions to validate hits from the screen. After 4-6 days the cells were split in a 1:2 or 1:3 ratio and further maintained for 4-6 days before analysis by FACS, qRT-PCR, AP staining, and/or RNA-seq. 5i/L/A media in which the MEK inhibitor PD0325901 was replaced with 5 μM AZ628 are represented as alternative 5i/L/A (a5i/L/A). FXGY, AXGY, AXGYU, PXGY, and GXGY media were prepared in serum-free N2B27 media supplemented with 1 μM PD166866, 5 μM AZ628, 5 μM AZ628 and 1 μM UNC0638, 1 μM PD0325901, and 5 μM GDC-0994, respectively, together with 2 μM XAV939, 2 μM Gö6983, and 10 μM Y-27632. During these assays cells were fed with fresh media every second day and cultured in 5% O2, 5% CO2 at 37° C. Detailed information on conditions used for defining alternative naïve maintenance media can be found in Tables 1-6.
(§2) Quantitative reverse transcriptase PCR (qRT-PCR): Total RNA was isolated using the E.Z.N.A. total RNA kit I and cDNA synthesis was performed from total RNA using the high-capacity cDNA reverse transcription kit (Applied Biosystems, 4368814). qRT-PCR was performed using PowerUp SYBR Green Master Mix (Applied Biosystems, A25743) on the StepOnePlus Real-Time PCR System (Applied Biosystems). Gene expression was normalized to RPLP0 and analyzed using the ΔCt method. Error bars represent the standard deviation (SD) of the mean of technical replicates.
For this purpose, WIBR3 OCT4-ΔPE-GFP+-naïve hESCs that were generated in the absence of reprogramming transgenes were used using the 5i/L/A cocktail. […] Compounds were tested at two different concentrations (2.5 and 5 μM), and cells were maintained for two passages (FIG. 2A).

H9-naïve hESCs [2] = experiment: Extended maintenance assay, flow cytometry for naïve-specific CD75 and SUSD2; conditions: serum-free media supplemented with XGY, 2.5 μM compound
Procedure: as §1
Flow cytometry: Primed hESCs were single-cell dissociated using TrypLE Express, while Accutase was used for naïve hESCs. Cells were resuspended in fibroblast medium and centrifuged. Cell pellets were washed in 5 mL ice-cold PBS. The cells were then resuspended in […] fresh ice-cold FACS buffer (PBS supplemented with 5% FBS), and incubated with antibodies for 30 minutes on ice in the dark. The following antibodies were used: anti-SUSD2-PE (1:100), anti-CD75-eFluor 660 (1:100), anti-CD90-PE (1:100), anti-ITGA6-FITC (1:100) and EGFR-APC (1:25). Post-incubation the cells were washed once with 1 mL ice-cold PBS, resuspended in fresh 500 μl FACS buffer, and passed through a […] cell strainer into round bottom FACS tubes (Corning, #352235). Flow cytometry was performed using a BD LSRFortessa X-20 and the data were analyzed using the FlowJo software.

H9 hESCs = experiment: Primed-to-naïve reprogramming, colony morphology and colony numbers (imaging, AP staining); conditions: 20 ng/ml LIF, 0.5 μM IM12 or 0.5 μM WH-04; P2
Procedure: […]: For primed-to-naïve resetting experiments, primed hESCs were dissociated into single cells using TrypLE Express (GIBCO, 12604), washed in fibroblast medium [DMEM (Millipore Sigma, #SLM-021-B) supplemented with 10% FBS (HyClone, SH30396.03, 1×GlutaMAX (GIBCO, 35050), and 1% penicillin-streptomycin (GIBCO, 15140)] and 2×10^5 single primed hESCs were seeded on mitomycin C-inactivated mouse embryonic fibroblast (MEF) feeder cells coated 6 well plates in 3-4 mL mTeSR1 supplemented with 10 μM Y-27632. Two days later, medium was switched to either 5i/L/A or experimental induction media and maintained for 10-12 days. Cells at this stage were considered at passage zero. Cells were then split in a 1:2 or 1:3 ratio every 4-6 days as single cells using Accutase (Thermo Fischer Scientific, A1110501). PXGGY media were prepared in serum-free N2B27 media supplemented with 1 μM PD0325901, 2 μM XAV939, 2 μM Gö6938, 2.5 μM GDC-0994, and 10 μM Y-27632. PXGGY/A media were prepared in PXGGY supplemented with 10 ng/ml Activin A. During these assays cells were fed with fresh media every second day and cultured in 5% O2, 5% CO2 at 37° C. Detailed information on the conditions used for defining alternative naïve induction media can be found in Tables 1-6.
(§3) Alkaline phosphatase (AP) staining: AP staining was performed following the manufacturer's instructions using the Leukocyte Alkaline Phosphatase Kit (Sigma, 86R, 1KT). For AP staining cells were seeded at equal density in 6-well plates and passaged in the same ratio for all conditions. Post-staining cells were allowed to dry overnight in the dark and scanned using HP Color Laser Jet Managed printer/scanner (MFP E67650).
(§4) Imaging: The imaging of H9 and WIBR3 hESCs was performed in live conditions within culture media. For WIBR3 MECP2-GFP/tdTomato hESCs the medium was aspirated, cell were washed twice with PBS, and imaged in 1 mL of PBS. All images were captured at 10× magnification on a Leica DMi8 microscope.
Example 1 establishes the PXGGY/A cocktail enables efficient primed-to-naïve reprogramming, homogenous induction of naïve-specific cell surface markers CD75 and SUSD2, and homogenous X-chromosome reactivation. […] To address this, the impact of ROCK inhibitor Y-27632 titration was first assessed when used continuously or transiently for only 24 hours at the time of passaging during primed-to-naïve reprogramming (FIG. 9A and FIG. 9B). […] The PXGGY/A composition from hereon will be denoted as PXGGY/A to specify transient use of ROCKi.
However, the morphology of naïve hESCs reprogrammed using this condition still appeared flat compared to the characteristic dome-shaped colony morphology associated with naïve pluripotency. […]

naïve hESCs = experiment: Colony morphology, proliferation and colony formation (phase contrast, AP staining) during naïve maintenance
Procedure: as §1, §3, §4

H9-naïve hESCs [3] = experiment: qRT-PCR for naïve-specific transcripts (KLF17, DNMT3L) during naïve maintenance; conditions: added to AXGY
Procedure: as §1, §2

With Cc1ccc(NC(=O)c2cccc(C(C)(C)C#N)c2)cc1Nc1ccc2ncn(C)c(=O)c2c1 [AZ628] the “activity in maintaining OCT4-ΔPE-GFP reporter activity after passaging” value ([1]; in Go/Y) was “showed activity”, the “activity in maintaining OCT4-ΔPE-GFP reporter activity after passaging” value ([1]; in XAV/Y) was “showed activity” and the “expansion of OCT4-ΔPE-GFP+ cells” value ([1]; in the presence of either XAV or Go) was “robust expansion”. For the same compound, the “sustaining CD75/SUSD2-positive cells over multiple passages” value (H9-naïve hESCs [2]) was “robustly sustained”.

In the case of Cc1[nH]c2ccccc2c1C1=C(NCCc2ccc(F)cc2)C(=O)N(C)C1=O [IM12], the “morphological appearance of naïve hESCs on individual addition to PXGGY/A” value (“morphological appearance of naïve hESCs” below) (H9 hESCs) is reported as “did not result in a major improvement”.

CC(C)(C)n1nc(-c2cccc3ccccc23)c2c(N)ncnc21 [Naphtol-PP1] was tested, and the “colony morphology upon addition to the AXGY cocktail” value (naïve hESCs; added to AXGY) was “enhanced dome-shaped colony morphology”.

For C/C(=N\NC(=N)N)c1cc(NC(=O)CCCCCCCCC(=O)Nc2cc(/C(C)=N/NC(=N)N)cc(/C(C)=N/NC(=N)N)c2)cc(/C(C)=N/NC(=N)N)c1 [Semapimod], the “sustaining CD75/SUSD2-positive cells over multiple passages” value (H9-naïve hESCs [2]) was “some double-positive cells” and the “proliferation of double-positive cells” value (naïve hESCs; serum-free media supplemented with XGY) was “very limited proliferation”.

With COc1cc2c(NC3CCN(C(C)C)CC3)nc(C3CCCCC3)nc2cc1OCCCN1CCCC1 [UNC0638] the “KLF17 expression upon addition to the AXGY cocktail” value (H9-naïve hESCs [3]) was “further stimulated” and the “colony proliferation compared to AXGY” value (naïve hESCs; added to AXGY) was “slightly reduced”.

For COc1ccc(N(C(=O)Oc2c(C)cccc2C)c2ccnc(Nc3ccc(N4CCN(C)CC4)cc3)n2)c(OC)c1 [WH-4-023], the “morphological appearance of naïve hESCs” value (H9 hESCs) was “did not result in a major improvement”.

For “LIF: leukemia inhibitory factor, recombinant human cytokine”, the “morphological appearance of naïve hESCs” value (H9 hESCs) was “did not result in a major improvement”.
